Like-named read-outs stand apart in the source and are kept apart here. Peptide text beside a SMILES is read from it.
Experiments:
KDM7C Dual (PHD+JmjC) = KDM7C Dual (PHD+JmjC) (Homo sapiens, UniProt O75151); assay: BLI binding; conditions: 1:1 binding model
Excerpt: (§1) Figure S2. BLI for KDM7 proteins with cyclic peptides.
(§2) BLI traces for b inding to KDM7 protein domains immobilised by C-terminal His -tag on Ni -NTA
(§3) biosensors, against cyclic peptides. Response trace for each peptide concentration is represented by
(§4) a different colour, with the fitted curves overlaid in black.
(§5) concentration plotted, with 2-fold dilutions thereafter. Dual domain = PHD+JmjC. […]
(§6) against KDM7 and other protein domains. t1/2 = half life (0.693 / Koff)
(§7) (1 picture or pasted object on this page, not shown here)

KDM7A PHD [1] = target: T1, KDM7A PHD (Homo sapiens, UniProt Q6ZMT4); assay: BLI binding; conditions: 1:1 binding model
T1 construct: KDM7A 38-98; made in house
T1 sequence (Q6ZMT4 38-98): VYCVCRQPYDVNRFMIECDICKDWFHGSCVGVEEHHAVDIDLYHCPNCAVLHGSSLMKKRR
Excerpt: as §1, §2, §3, §4, §5, §6, §7

KDM7A Dual (PHD+JmjC) = KDM7A Dual (PHD+JmjC) (Homo sapiens, UniProt Q6ZMT4); assay: BLI binding; conditions: 1:1 binding model
Excerpt: as §1, §2, §3, §4, §5, §6, §7

KDM7C PHD [2] = target: T2, KDM7C PHD (Homo sapiens, UniProt O75151); assay: BLI binding; conditions: 1:1 binding model
T2 construct: KDM7C 1-67; made in house
T2 sequence (O75151 1-67): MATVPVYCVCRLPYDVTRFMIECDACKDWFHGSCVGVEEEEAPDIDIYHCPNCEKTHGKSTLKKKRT
Excerpt: as §1, §2, §3, §4, §5, §6, §7

KDM7B JmjC = target: T3, KDM7B JmjC (Homo sapiens, UniProt Q9UPP1); assay: BLI binding; set-up: key to BLI Screening, KDM7B JmjC: (+) = binding; (-) = no binding; (NS) = non-specific
T3 construct: made in house
Excerpt: as §1, §2, §3, §4, §5, §6, §7

HisTrx-DIDO PHD = target: T4, HisTrx-DIDO PHD (Homo sapiens, UniProt Q9BTC0); assay: ITC binding; conditions: 50 mM HEPES, 100 mM NaCl, pH 7.4, 25 °C; 1:1 binding model
T4 construct: HisTrx-DIDO PHD
Experimental: (§8) Figure S10. ITC results: Tabulated values from 1:1 binding model and conditions
(§9) ITC buffer = 50 mM HEPES, 100 mM NaCl, pH 7.4, 0.2 µm filtered), at 25 °C. Dual = PHD+JmjC. HisTrx
(§10) = His 6+thioredoxin tag, GST = glutathione S -transferase tag, ZB = Z -basic tag. Syringe contained
(§11) peptide solution in buffer. Cell contained protein solution in buffer.
as §7

KDM7A Dual = KDM7A Dual (Homo sapiens, UniProt Q6ZMT4); assay: ITC binding
Experimental: as §8, §9, §10, §11, §7

KDM7B Dual = target: T5, KDM7B Dual (Homo sapiens, UniProt Q9UPP1); assay: ITC binding
T5 construct: Dual = PHD+JmjC; made in house
Experimental: as §8, §9, §10, §11, §7

KDM7B PHD [3] = target: T6, KDM7B PHD (Homo sapiens, UniProt Q9UPP1); assay: ITC binding
T6 construct: KDM7B 1-66; made in house
T6 sequence (Q9UPP1 1-66 isoform Q9UPP1-2): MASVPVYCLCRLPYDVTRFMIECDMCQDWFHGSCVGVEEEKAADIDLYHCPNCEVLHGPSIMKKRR
Experimental: as §8, §9, §10, §11, §7

KDM7A PHD [4] = target: T1, KDM7A PHD; assay: ITC binding
Experimental: as §8, §9, §10, §11, §7

KDM7C Dual - ZB = KDM7C Dual - ZB (Homo sapiens, UniProt O75151); assay: ITC binding
Experimental: as §8, §9, §10, §11, §7

KDM7C PHD [5] = target: T2, KDM7C PHD; assay: ITC binding; conditions: for Kd: 1:1 binding model
Experimental: as §8, §9, §10, §11, §7

HisTrx-KDM7B PHD = target: T7, HisTrx-KDM7B PHD (Homo sapiens, UniProt Q9UPP1); assay: ITC binding
T7 construct: KDM7B 1-66; made in house
T7 sequence (Q9UPP1 1-66 isoform Q9UPP1-2): T6 sequence (Q9UPP1 1-66 isoform Q9UPP1-2)
Experimental: Figure S8. ITC titration curves for His-Trx-KDM7B PHD.
Top panels are raw heat of injection, bottom panels are normalised data fitted to 1:1 binding model.
His-Trx = His6+thioredoxin. For […]
results of fit and conditions see Figure S10. […]
Figure S10. ITC results: Tabulated values from 1:1 binding model and conditions ITC buffer = 50 mM HEPES, 100 mM NaCl, pH 7.4, 0.2 µm filtered), at 25 °C. Dual = PHD+JmjC. HisTrx = His 6+thioredoxin tag, GST = glutathione S -transferase tag, ZB = Z -basic tag. Syringe contained peptide solution in buffer. Cell contained protein solution in buffer.
as §7

KDM2/3/4/5/6 = assay: KDM selectivity screening by MALDI-TOF-MS; format: biochemical; conditions: histone peptide substrates; incl. full-length KDM2A and KDM2B
Excerpt: The panel included full-length recombinant KDM2A and KDM2B which have the closest JmjC-domains to KDM7s, but with unrelated PHD-fingers (Fig. S43 and S44 ^†).

KDM7B PHD [6] = target: T6, KDM7B PHD; assay: BLI binding; set-up: key to BLI Screening, KDM7B PHD: (+) = binding; (-) = no binding; (NS) = non-specific
Excerpt: as §1, §2, §3, §4, §5, §6, §7

[7] = His-tagged protein on Ni-NTA biosensors
[8] = qualitative assessment of binding by BLI
[9] = 50 mM HEPES, 100 mM NaCl, pH 7.4, 25 °C, 1:1 binding model

T5 sequence (Q9UPP1 37-483 limits assumed): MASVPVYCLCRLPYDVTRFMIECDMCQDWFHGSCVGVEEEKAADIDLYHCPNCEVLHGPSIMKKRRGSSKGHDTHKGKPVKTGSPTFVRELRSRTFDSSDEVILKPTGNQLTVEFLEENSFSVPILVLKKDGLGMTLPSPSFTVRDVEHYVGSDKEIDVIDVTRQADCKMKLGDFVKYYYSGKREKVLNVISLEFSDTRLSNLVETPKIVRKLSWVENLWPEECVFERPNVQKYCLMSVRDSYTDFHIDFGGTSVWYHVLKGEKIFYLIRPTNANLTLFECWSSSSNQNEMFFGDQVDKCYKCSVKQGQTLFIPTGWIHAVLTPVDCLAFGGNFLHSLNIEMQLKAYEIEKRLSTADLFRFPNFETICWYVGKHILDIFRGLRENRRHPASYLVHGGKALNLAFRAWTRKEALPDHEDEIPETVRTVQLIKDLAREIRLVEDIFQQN
Sequence of KDM7C Dual (PHD+JmjC) (O75151 1-353 limits assumed): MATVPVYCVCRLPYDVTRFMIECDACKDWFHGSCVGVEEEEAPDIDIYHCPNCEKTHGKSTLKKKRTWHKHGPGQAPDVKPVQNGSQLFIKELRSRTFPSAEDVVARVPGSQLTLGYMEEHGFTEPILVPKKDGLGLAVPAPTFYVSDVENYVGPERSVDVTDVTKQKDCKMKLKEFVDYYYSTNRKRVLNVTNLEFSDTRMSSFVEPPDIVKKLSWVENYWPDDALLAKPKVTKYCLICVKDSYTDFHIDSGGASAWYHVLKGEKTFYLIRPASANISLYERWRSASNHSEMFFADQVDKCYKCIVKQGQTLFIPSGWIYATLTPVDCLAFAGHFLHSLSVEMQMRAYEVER
Sequence of KDM7C Dual - ZB (O75151 1-353 limits assumed): as above
Sequence of KDM7A Dual (PHD+JmjC) (Q6ZMT4 38-386 limits assumed): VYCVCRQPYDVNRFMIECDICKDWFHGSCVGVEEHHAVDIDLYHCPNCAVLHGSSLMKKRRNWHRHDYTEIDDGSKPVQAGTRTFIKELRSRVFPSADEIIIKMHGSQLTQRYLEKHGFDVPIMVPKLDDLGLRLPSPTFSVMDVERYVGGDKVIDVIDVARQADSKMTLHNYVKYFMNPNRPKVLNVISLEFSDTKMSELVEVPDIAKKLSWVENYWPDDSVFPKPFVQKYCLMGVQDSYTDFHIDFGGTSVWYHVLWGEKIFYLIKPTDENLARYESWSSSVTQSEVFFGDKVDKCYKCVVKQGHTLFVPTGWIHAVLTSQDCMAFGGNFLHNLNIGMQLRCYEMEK
Sequence of KDM7A Dual (Q6ZMT4 38-386 limits assumed): as above
T3 sequence (Q9UPP1 231-387 limits assumed): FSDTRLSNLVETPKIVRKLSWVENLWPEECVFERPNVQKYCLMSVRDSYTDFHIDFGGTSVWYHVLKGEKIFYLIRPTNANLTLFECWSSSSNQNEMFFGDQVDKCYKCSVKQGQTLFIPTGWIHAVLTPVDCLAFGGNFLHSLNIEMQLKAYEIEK
T4 sequence (Q9BTC0 268-322 limits assumed): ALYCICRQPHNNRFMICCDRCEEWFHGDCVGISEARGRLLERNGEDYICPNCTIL

CC(C)C[C@@H]1NC(=O)[C@H](Cc2ccc(O)cc2)NC(=O)[C@H](Cc2ccc(O)cc2)NC(=O)CSC[C@@H](C(N)=O)NC(=O)[C@H]([C@@H](C)O)NC(=O)[C@H](CCCNC(=N)N)NC(=O)[C@H](Cc2ccccc2)NC(=O)[C@H](C(C)C)NC(=O)[C@H](CO)NC(=O)[C@@H]2CCCN2C(=O)[C@H](Cc2ccc(O)cc2)NC(=O)[C@@H]2CCCN2C(=O)[C@H](Cc2c[nH]cn2)NC(=O)[C@H]([C@@H](C)O)NC1=O [OC9] (HELM PEPTIDE1{[O=C(C[*:3])[*:2]].Y.Y.L.T.H.P.Y.P.S.V.F.R.T.C.[am]}$PEPTIDE1,PEPTIDE1,1:R3-15:R3$$$V2.0)
koff (KDM7C Dual (PHD+JmjC)): 0.000137 ± 1e-06 s⁻¹
kon (KDM7C Dual (PHD+JmjC)): 409000 ± 2000 M⁻¹ s⁻¹
Kd (KDM7C Dual (PHD+JmjC); read-out: BLI pKD, KDM7C Dual (converted)): 0.316 nM
koff (KDM7A PHD [1]): 0.00679 ± 2e-05 s⁻¹
kon (KDM7A PHD [1]): 358000 ± 3000 M⁻¹ s⁻¹
Kd (KDM7A PHD [1]; [7]): 19 nM
koff (KDM7A Dual (PHD+JmjC)): 0.0123 ± 0.0001 s⁻¹
kon (KDM7A Dual (PHD+JmjC)): 289000 ± 3000 M⁻¹ s⁻¹
Kd (KDM7A Dual (PHD+JmjC); [7]): 42.5 nM
koff (KDM7C PHD [2]): 0.000483 ± 2e-06 s⁻¹
kon (KDM7C PHD [2]): 463000 ± 2000 M⁻¹ s⁻¹
Kd (KDM7C PHD [2]; [7]): 1.05 nM
Kd (KDM7B JmjC; 1:1 binding model, read-out: BLI pKD, KDM7B JmjC (converted)): > 1000 nM
BLI KD, KDM7B JmjC (KDM7B JmjC; His-tagged protein on Ni-NTA biosensors, 1:1 binding model): no affinity
BLI Screening, KDM7B JmjC (KDM7B JmjC; [8]): -
ITC KD, HisTrx-DIDO PHD (HisTrx-DIDO PHD): no measurable affinity
Kd (KDM7A Dual; [9]): 34.3 nM
ITC ΔH, KDM7A Dual (KDM7A Dual; 25 °C): -56.9 ± 4.3 kJ mol -1
ITC N, KDM7A Dual (KDM7A Dual; stoichiometry): 0.92 ± 0.03
Kd (KDM7B Dual; [9]): 10.5 nM
ITC ΔH, KDM7B Dual (KDM7B Dual; 25 °C): -46.0 ± 1.5 kJ mol -1
ITC N, KDM7B Dual (KDM7B Dual; stoichiometry): 0.95 ± 0.02
Kd (KDM7B PHD [3]; [9]): 11.7 nM
ITC ΔH, KDM7B PHD (KDM7B PHD [3]; 25 °C): -46.2 ± 1.2 kJ mol -1
ITC N, KDM7B PHD (KDM7B PHD [3]; stoichiometry): 0.99 ± 0.01
affinity of OC9 against the KDM7 PHD-fingers greater than the natural histone peptide ligand (KDM7B PHD [3]; vs H3_1–21K4me3): at least 10 fold
Kd (KDM7A PHD [4]; [9]): 33.4 nM
ITC ΔH, KDM7A PHD (KDM7A PHD [4]; 25 °C): -46.0 ± 1.3 kJ mol -1
ITC N, KDM7A PHD (KDM7A PHD [4]; stoichiometry): 0.71 ± 0.01
ITC ΔH, KDM7C Dual - ZB (KDM7C Dual - ZB; 25 °C): -65.7 ± 3.1 kJ mol -1
Kd (KDM7C Dual - ZB; read-out: ITC pKD, KDM7C Dual - ZB (converted)): 10 nM
ITC N, KDM7C Dual - ZB (KDM7C Dual - ZB; stoichiometry): 1.19 ± 0.01
Kd (KDM7C PHD [5]; 50 mM HEPES, 100 mM NaCl, pH 7.4, 25 °C): 9.56 nM
Kd (KDM7C PHD [5]): 10 ± 4 nM
ITC ΔH, KDM7C PHD (KDM7C PHD [5]; 25 °C): -62.0 ± 1.0 kJ mol -1
ITC N, KDM7C PHD (KDM7C PHD [5]; stoichiometry): 1.09 ± 0.01
Kd (HisTrx-KDM7B PHD; 50 mM HEPES, 100 mM NaCl, pH 7.4, 25 °C, 1:1 binding model, His6+thioredoxin tag, read-out: ITC KD, HisTrx-KDM7B PHD): 8.27 nM
ITC ΔH, HisTrx-KDM7B PHD (HisTrx-KDM7B PHD; 25 °C): -60.0 ± 1.3 kJ mol -1
Kd (HisTrx-KDM7B PHD; read-out: ITC pKD, HisTrx-KDM7B PHD (converted)): 7.94 nM
ITC N, HisTrx-KDM7B PHD (HisTrx-KDM7B PHD; stoichiometry): 0.86 ± 0.01
inhibition of other isolated KDM sub-families (KDM2/3/4/5/6) (KDM2/3/4/5/6): no significant inhibition
koff (KDM7B PHD [6]; 1:1 binding model): 0.00143 ± 1e-05 s⁻¹
kon (KDM7B PHD [6]; 1:1 binding model): 360000 ± 2000 M⁻¹ s⁻¹
Kd (KDM7B PHD [6]; His-tagged protein on Ni-NTA biosensors, 1:1 binding model, read-out: BLI KD, KDM7B PHD): 3.96 nM
BLI Screening, KDM7B PHD (KDM7B PHD [6]; [8]): +

Reference: paper PMC10321576, “Cyclic peptides target the aromatic cage of a PHD-finger reader domain to modulate epigenetic protein function” (Chemical Science, 2023)
